How the values were obtained:
[1] = tested on: CD4 T cells from OT-II donor mice; test: In vivo CD4 T cell activation (CFSE-labeled OT-II cells); design: species or system C57BL6J mice; conditions: three days after footpad immunization; CpG adjuvant
Method: Subsequently, immunization experiments were performed by injecting one footpad with free OVA or with nanoparticles composed of either PLA or PLGA that encapsulated an equivalent amount of OVA as a model antigen. All antigenic mixtures also contained CpG (a TLR9 agonist) as an adjuvant. The animals were injected, sacrificed three days after immunization, and OT-II T cell activation was assessed by flow cytometry in single-cell suspensions from different tissues.
By contrast, activated T cells divide and in the process split the fluorescent dye evenly between the two daughter cells resulting in an incremental decrease in fluorescence intensity upon each successive division. Thus, the greater the left shift in CFSE, fluorescence the stronger T cells were activated.

anti-nicotine IgG = test: Anti-nicotine IgG in immunized mice (ELISA); assay type: in vivo, C57BL6 mice; conditions: data of FIGS. 34 and 35

| Compound | local T cell proliferation in distal lymphoid tissues (brachial lymph node, spleen) [1] | production of nicotine antibodies (anti-nicotine IgG) |
| --- | --- | --- |
| free OVA: free chicken ovalbumin (OVA) model antigen, mixed with CpG adjuvant | only undivided cells or cells with very low CFSE content | – |
| CN1CCCC1c1cccnc1 (centres unmarked) [free nicotine, nicotine] | – | does not elicit the production of nicotine antibodies |

Source: patent publication US8906381B2, “Immunonanotherapeutics that provide IGG humoral response without T-cell antigen” (Massachusetts Institute of Technology, priority 2008, dated 2014)
